Data from patent US4471131A, “Novel silyl esters of N-phosphonomethylglycine” (Monsanto Company, priority 1983, dated 1984).

Experiments:
Assay in all cases: post-emergence herbicidal activity, greenhouse
Assay type in all cases: in vivo
[1] = system: Common Lambsquarters; details: Table III, formulated in anhydrous tetrahydrofuran
From the text: (§1) A good grade of top soil is placed in aluminum pans having holes in the bottom and compacted to a depth of 0.95 to 1.27 cm. from the top of the pan. A predetermined number of seeds of each of several dicotyledonous and moncotyledonous annual plant species and/or vegetative propagules for the perennial plant species were placed on the soil and pressed into the soil surface. The seeds and/or vegetative propagules are covered with soil and leveled. The pans are then placed on a sand bench in the greenhouse and watered from below as needed. After the plants reach the desired age (two to three weeks), each pan, except for the control pans, is removed individually to a spraying chamber and sprayed by means of an atomizer at the rates noted. In the spray solution is an amount of an emulsifying agent mixture to give a spray solution or suspension which contains about 0.4% by weight of the emulsifier. The spray solution or suspension contains a sufficient amount of the candidate chemical in order to give application rates corresponding to those set forth in the tables. The pans were returned to the greenhouse and watered as before and the injury to the plants as compared to the control is observed at approximately two and four weeks and the results recorded. In the tables, WAT means "weeks after treatment."
(§2) The post-emergent herbicidal activity index used in Tables II and III is as follows:
(§3) The plant species utilized in these tests are identified by letter in accordance with the following legend: […]

[2] = system: Wild Buckwheat; details: Table III, formulated in anhydrous tetrahydrofuran
From the text: as §1, §2, §3

[3] = system: Canada Thistle; details: Table II
From the text: as §1, §2, §3

[4] = system: Barnyardgrass
From the text: as §1, §2, §3

[5] = system: Downy Brome
From the text: as §1, §2, §3

[6] = system: Hemp Sesbania; details: Table III, formulated in anhydrous tetrahydrofuran
From the text: as §1, §2, §3

[7] = system: Morningglory
From the text: as §1, §2, §3

[8] = system: Large Crabgrass; details: Table III, formulated in anhydrous tetrahydrofuran
From the text: as §1, §2, §3

[9] = system: Cocklebur
From the text: as §1, §2, §3

[10] = Table II, 2 WAT, 5.6 kg/h, formulated in anhydrous tetrahydrofuran
[11] = Table II, 2 WAT, 11.2 kg/h, formulated in anhydrous tetrahydrofuran
[12] = Table II, 4 WAT, 11.2 kg/h, formulated in anhydrous tetrahydrofuran
[13] = Table III, 2 WAT, 1.1 kg/h, formulated in anhydrous tetrahydrofuran
[14] = Table III, 2 WAT, 5.6 kg/h, formulated in anhydrous tetrahydrofuran
[15] = Table III, 2 WAT, .28 kg/h, formulated in anhydrous tetrahydrofuran
[16] = Table III, 4 WAT, 5.6 kg/h, formulated in anhydrous tetrahydrofuran

CC(C)(C)[Si](OP(=O)(O)CNCC(=O)O)(c1ccccc1)c1ccccc1 [Ex. 5, Glycine, N-((([(1,1-Dimethylethyl)Diphenylsilyl]oxy)-Hydroxyphosphinyl)-Methyl)-,]
Plant Response Index (E) ([1]; 2 WAT, 1.1 kg/h): 0 (0-24% inhibition)
Plant Response Index (E) ([1]; 2 WAT, 5.6 kg/h): 0 (0-24% inhibition)
Plant Response Index (E) ([1]; 2 WAT, .28 kg/h): 0 (0-24% inhibition)
Plant Response Index (E) ([1]; 4 WAT, 5.6 kg/h): 1 (25-49% inhibition)
Plant Response Index (Q) ([2]; 2 WAT, 1.1 kg/h): 0 (0-24% inhibition)
Plant Response Index (Q) ([2]; 2 WAT, 5.6 kg/h): 1 (25-49% inhibition)
Plant Response Index (Q) ([2]; 2 WAT, .28 kg/h): 0 (0-24% inhibition)
Plant Response Index (Q) ([2]; 4 WAT, 5.6 kg/h): 0 (0-24% inhibition)
Plant Response Index (A) ([3]; 2 WAT, 5.6 kg/h): 1 (25-49% inhibition)
Plant Response Index (A) ([3]; 2 WAT, 5.6 kg/h, formulated in anhydrous tetrahydrofuran): 0 (0-24% inhibition)
Plant Response Index (A) ([3]; 2 WAT, 11.2 kg/h): 1 (25-49% inhibition)
Plant Response Index (A) ([3]; 2 WAT, 11.2 kg/h, formulated in anhydrous tetrahydrofuran): 0 (0-24% inhibition)
Plant Response Index (A) ([3]; 4 WAT, 5.6 kg/h): 1 (25-49% inhibition)
Plant Response Index (A) ([3]; 4 WAT, 11.2 kg/h): 1 (25-49% inhibition)
Plant Response Index (A) ([3]; 4 WAT, 11.2 kg/h, formulated in anhydrous tetrahydrofuran): 1 (25-49% inhibition)
Plant Response Index (K) ([4]; Table II, 2 WAT, 5.6 kg/h): 0 (0-24% inhibition)
Plant Response Index (K) [4, 10]: 0 (0-24% inhibition)
Plant Response Index (K) ([4]; Table II, 2 WAT, 11.2 kg/h): 1 (25-49% inhibition)
Plant Response Index (K) [4, 11]: 1 (25-49% inhibition)
Plant Response Index (K) ([4]; Table II, 4 WAT, 5.6 kg/h): 0 (0-24% inhibition)
Plant Response Index (K) ([4]; Table II, 4 WAT, 11.2 kg/h): 2 (50-74% inhibition)
Plant Response Index (K) [4, 12]: 0 (0-24% inhibition)
Plant Response Index (K) [4, 13]: 0 (0-24% inhibition)
Plant Response Index (K) [4, 14]: 0 (0-24% inhibition)
Plant Response Index (K) [4, 15]: 0 (0-24% inhibition)
Plant Response Index (K) [4, 16]: 0 (0-24% inhibition)
Plant Response Index (J) ([5]; Table II, 2 WAT, 5.6 kg/h): 0 (0-24% inhibition)
Plant Response Index (J) [5, 10]: 0 (0-24% inhibition)
Plant Response Index (J) ([5]; Table II, 2 WAT, 11.2 kg/h): 0 (0-24% inhibition)
Plant Response Index (J) [5, 11]: 0 (0-24% inhibition)
Plant Response Index (J) ([5]; Table II, 4 WAT, 5.6 kg/h): 0 (0-24% inhibition)
Plant Response Index (J) ([5]; Table II, 4 WAT, 11.2 kg/h): 0 (0-24% inhibition)
Plant Response Index (J) [5, 12]: 0 (0-24% inhibition)
Plant Response Index (J) [5, 13]: 0 (0-24% inhibition)
Plant Response Index (J) [5, 14]: 0 (0-24% inhibition)
Plant Response Index (J) [5, 15]: 0 (0-24% inhibition)
Plant Response Index (J) [5, 16]: 0 (0-24% inhibition)
Plant Response Index (R) ([6]; 2 WAT, 1.1 kg/h): 0 (0-24% inhibition)
Plant Response Index (R) ([6]; 2 WAT, 5.6 kg/h): 0 (0-24% inhibition)
Plant Response Index (R) ([6]; 2 WAT, .28 kg/h): 0 (0-24% inhibition)
Plant Response Index (R) ([6]; 4 WAT, 5.6 kg/h): 0 (0-24% inhibition)
Plant Response Index (D) ([7]; Table II, 2 WAT, 5.6 kg/h): 1 (25-49% inhibition)
Plant Response Index (D) [7, 10]: 1 (25-49% inhibition)
Plant Response Index (D) ([7]; Table II, 2 WAT, 11.2 kg/h): 1 (25-49% inhibition)
Plant Response Index (D) [7, 11]: 1 (25-49% inhibition)
Plant Response Index (D) ([7]; Table II, 4 WAT, 5.6 kg/h): 1 (25-49% inhibition)
Plant Response Index (D) ([7]; Table II, 4 WAT, 11.2 kg/h): 1 (25-49% inhibition)
Plant Response Index (D) [7, 12]: 1 (25-49% inhibition)
Plant Response Index (D) [7, 13]: 0 (0-24% inhibition)
Plant Response Index (D) [7, 14]: 1 (25-49% inhibition)
Plant Response Index (D) [7, 15]: 0 (0-24% inhibition)
Plant Response Index (D) [7, 16]: 0 (0-24% inhibition)
Plant Response Index (T) ([8]; 2 WAT, 1.1 kg/h): 0 (0-24% inhibition)
Plant Response Index (T) ([8]; 2 WAT, 5.6 kg/h): 1 (25-49% inhibition)
Plant Response Index (T) ([8]; 2 WAT, .28 kg/h): 0 (0-24% inhibition)
Plant Response Index (T) ([8]; 4 WAT, 5.6 kg/h): 1 (25-49% inhibition)
Plant Response Index (B) ([9]; Table II, 2 WAT, 5.6 kg/h): 2 (50-74% inhibition)
Plant Response Index (B) [9, 10]: 1 (25-49% inhibition)
Plant Response Index (B) ([9]; Table II, 2 WAT, 11.2 kg/h): 2 (50-74% inhibition)
Plant Response Index (B) [9, 11]: 1 (25-49% inhibition)
Plant Response Index (B) ([9]; Table II, 4 WAT, 5.6 kg/h): 1 (25-49% inhibition)
Plant Response Index (B) ([9]; Table II, 4 WAT, 11.2 kg/h): 2 (50-74% inhibition)
Plant Response Index (B) [9, 12]: 1 (25-49% inhibition)
Plant Response Index (B) [9, 13]: 1 (25-49% inhibition)
Plant Response Index (B) [9, 14]: 0 (0-24% inhibition)
Plant Response Index (B) [9, 15]: 1 (25-49% inhibition)
Plant Response Index (B) [9, 16]: 0 (0-24% inhibition)
